The target of this experiment is T1, IP receptor (Homo sapiens, UniProt P43119).
T1 construct: expressed in transfected cells; host or cells: CHO cells stably expressing the IP receptor (CHO-IP)
T1 sequence (P43119 whole entry): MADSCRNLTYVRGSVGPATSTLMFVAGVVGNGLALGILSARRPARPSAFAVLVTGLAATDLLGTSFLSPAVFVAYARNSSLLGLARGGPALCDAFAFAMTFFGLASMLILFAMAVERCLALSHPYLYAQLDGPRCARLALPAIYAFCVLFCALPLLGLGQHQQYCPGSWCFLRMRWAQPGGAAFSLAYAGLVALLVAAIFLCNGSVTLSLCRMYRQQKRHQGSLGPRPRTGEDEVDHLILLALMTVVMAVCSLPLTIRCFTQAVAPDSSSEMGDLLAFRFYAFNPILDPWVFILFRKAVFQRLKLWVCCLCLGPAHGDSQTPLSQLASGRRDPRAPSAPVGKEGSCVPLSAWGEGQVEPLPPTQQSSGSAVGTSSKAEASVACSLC
The experiment in a line: cAMP accumulation in CHO cells stably expressing the IP receptor (CHO-IP), PerkinElmer AlphaScreen assay. It is filed as cell-based. Conditions: agonist activity, 1 hour at room temperature, 4-parameter logistic fit. The procedure: Activity of compounds at the IP receptor (IP receptor) is assessed by measuring cAMP accumulation in CHO cells stably expressing the IP receptor (CHO-IP) using the PerkinElmer AlphaScreen assay. This technology measures the endogenous production of cAMP, in a non-radioactive luminescence proximity homogenous assay. A biological reaction occurs between streptavidin coated donor beads, biotinylated cAMP and anti-cAMP acceptor beads, bringing the donor and acceptor beads close enough together so that upon excitation a fluorescence signal is produced. On production of endogenous cAMP, competition between the biotinylated cAMP and cellular-derived cAMP causes a reduction in the fluorescent signal. The reduction in signal is proportional to the amount of cAMP being produced, thus it is possible to quantify the amount of cAMP being produced on stimulation with agonist.
Test and reference compounds are prepared at 100×[final] in 100% DMSO, and diluted 1:3 using a Biomek Fx (Beckman Coulter). This is followed by an intermediate dilution to give 5×[final] in assay buffer (HBSS containing 5 mM HEPES, 0.1% (w/v) BSA). 5 μL of 5×[final] test compounds, reference compounds and buffer/DMSO control are then transferred to a 384-well white OptiPlate, containing 20 μL CHO-IP cell suspension (15,000 cells/well, prepared from frozen), and plate is incubated at room temperature for 1 hour. A cAMP standard curve is constructed for each experiment (concentration range of 10000 nM to 0.001 nM, in assay buffer) and 25 μL of each concentration added to the last two columns of the assay plate. The incubation is terminated by the addition of lysis buffer (dH2O; 0.3% (v v^−1) Tween-20) containing 20 units mL^−1 streptavidin coated donor beads and biotinylated cAMP (pre-incubated for 30 minutes) and 20 units mL^−1 anti-cAMP acceptor beads, which are added to the lysis buffer just before addition to the assay plate. The assay plate is then incubated at room temperature in the dark, for 60 minutes with gentle shaking, and read on the Envision plate reader (Perkin Elmer).
The raw data of the reference compounds, test compounds and controls are converted into cAMP concentrations, using the cAMP standard curve, in GraphPadPrism (GraphPad Software Inc). EC50 as well as maximal values of the agonist curves are determined using a 4-parameter logistic equation. The % maximum response values of all test compounds are determined using the top of the treprostinil concentration-response curve.
`Cc1ccc(-c2nc3cc(C4CC4)n(CCCCCCC(=O)O)c3nc2-c2ccc(C)cc2)cc1` [Example 1, 7-(6-Cyclopropyl-2,3-di-p-tolyl-5H-pyrrolo[2,3-b]pyrazin-5-yl)heptanoic acid] gave an EC50 of 1.7 nM.

Consider `CCOC(=O)CCCCCCn1c(C2CC2)cc2nc(-c3ccc(C)cc3)c(-c3ccc(C)cc3)nc21` [Example 1.1, Ethyl 7-(6-cyclopropyl-2,3-di-p-tolyl-5H-pyrrolo[2,3-b]pyrazin-5-yl)heptanoate], for which the EC50 amounted to 57.5 nM.

`Cc1ccc(-c2nc3cc(C(C)C)n(CCCCCCC(=O)O)c3nc2-c2ccc(C)cc2)cc1` [Example 1.2, 7-(6-Isopropyl-2,3-di-p-tolyl-pyrrolo[2,3-b]pyrazin-5-yl)-heptanoic acid] had a concentration giving a half-maximal response (EC50) of 1.8 nM.

In the case of `CCOC(=O)CCCCCCn1c(C(C)C)cc2nc(-c3ccc(C)cc3)c(-c3ccc(C)cc3)nc21` [Example 1.3, ethyl 7-(6-isopropyl-2,3-di-p-tolyl-5H-pyrrolo[2,3-b]pyrazin-5-yl)heptanoate], the EC50 amounted to 283 nM.

The compound `CCOC(=O)CCCCCCn1ccc2nc(-c3ccc(C)cc3)c(-c3ccc(C)cc3)nc21` [Example 1.4, 7-(2,3-Di-p-tolyl-pyrrolo[2,3-b]pyrazin-5-yl)-heptanoic acid ethyl ester] had a half-maximal effective concentration (EC50) of 18.3 nM.

On to `Cc1ccc(-c2nc3ccn(CCCCCCC(=O)O)c3nc2-c2ccc(C)cc2)cc1` [Example 1.5, 7-(2,3-Di-p-tolyl-pyrrolo[2,3-b]pyrazin-5-yl)-heptanoic acid], for which a half-maximal response (EC50) required 6.9 nM.

Compound `Cc1ccc(-c2nc3c(C=O)cn(CCCCCCC(=O)O)c3nc2-c2ccc(C)cc2)cc1` [Example 2.1, 7-(7-Formyl-2,3di-p-tolyl-5H-pyrrolo[2,3-b]pyrazin-5-yl)heptanoic acid] registered an EC50 of 7.1 nM.

`Cc1ccc(-c2nc3c(CO)cn(CCCCCCC(=O)O)c3nc2-c2ccc(C)cc2)cc1` [Example 2.2, 7-(7-(Hydroxymethyl)-2,3-di-p-tolyl-5H-pyrrolo[2,3-b]pyrazin-5-yl)heptanoic acid] came in with an EC50 of 17.4 nM.

The compound `CCOC(=O)CCCCCCn1cc(CO)c2nc(-c3ccc(C)cc3)c(-c3ccc(C)cc3)nc21` [Example 3, Ethyl 7-(7-(hydroxymethyl)-2,3-di-p-tolyl-5H-pyrrolo[2,3-b]pyrazin-5-yl)heptanoate] came in with an EC50 of 325 nM.

Compound `CCOC(=O)CCCCCCn1cc(CNC(C)C)c2nc(-c3ccc(C)cc3)c(-c3ccc(C)cc3)nc21` [Example 4.1, Ethyl 7-(7-((isopropylamino)methyl)-2,3-di-p-tolyl-5H-pyrrolo[2,3-b]pyrazin-5-yl)heptanoate] yielded an EC50 of 415 nM.

The compound `Cc1ccc(-c2nc3c(CNC(C)C)cn(CCCCCCC(=O)O)c3nc2-c2ccc(C)cc2)cc1` [Example 4.2, 7-(7-((Isopropylamino)methyl)-2,3-di-p-tolyl-5H-pyrrolo[2,3-b]pyrazin-5-yl)heptanoic acid] displayed an EC50 of 79.7 nM.

The compound `COc1cc2nc(-c3ccc(C)cc3)c(-c3ccc(C)cc3)nc2n1CCCCCCC(=O)O` [Example 5, 7-(6-Methoxy-2,3-di-p-tolyl-pyrrolo[2,3-b]pyrazin-5-yl)-heptanoic acid] showed an EC50 of 0.7 nM.

`CCOC(=O)CCCCCCN1CCc2nc(-c3ccc(C)cc3)c(-c3ccc(C)cc3)nc21` [Example 6, Ethyl 7-(2,3-di-p-tolyl-6,7-dihydro-5H-pyrrolo[2,3-b]pyrazin-5-yl)heptanoate]: the EC50 stood at 1.8 nM.

Take `Cc1ccc(-c2nc3cc(CCCCC(=O)O)[nH]c3nc2-c2ccc(C)cc2)cc1` [Example 7, 5-(2,3-Di-p-tolyl-5H-pyrrolo[2,3-b]pyrazin-6-yl)-pentanoic acid]: a half-maximal response (EC50) required 320 nM.

Consider `Cc1ccc(-c2nc3cc(CCCCC(=O)NCC(=O)O)[nH]c3nc2-c2ccc(C)cc2)cc1` [Example 8, 2-(5-(2,3-Di-p-tolyl-5H-pyrrolo[2,3-b]pyrazin-6-yl)pentanamido)acetic acid], for which it took 1250 nM to reach a half-maximal effect (EC50).

`Cc1ccc(-c2nc3cc(C)n(CCCCCCC(=O)O)c3nc2-c2ccc(C)cc2)cc1` [Example 9, 7-(6-Methyl-2,3-di-p-tolyl-5H-pyrrolo[2,3-b]pyrazin-5-yl)heptanoic acid] had an EC50 of 0.3 nM.

For `O=C(O)CCCCCCn1c(C2CC2)cc2nc(-c3ccccc3)c(-c3ccccc3)nc21` [Example 10, 7-(6-Cyclopropyl-2,3-diphenyl-pyrrolo[2,3-b]pyrazin-5-yl)-heptanoic acid], it took 0.5 nM to reach a half-maximal effect (EC50).

Turning to `COc1ccc(-c2nc3cc(C4CC4)n(CCCCCCC(=O)O)c3nc2-c2ccc(C)cc2)cc1` [Example 10.1, 7-(6-cyclopropyl-2-(4-methoxy-phenyl)-3-(p-tolyl)-5H-pyrrolo[2,3-b]pyrazin-5-yl)heptanoic acid], the EC50 worked out at 2.4 nM.

Take `O=C(O)CCCCCCn1c(C2CC2)cc2nc(-c3ccc(Cl)cc3)c(-c3ccc(Cl)cc3)nc21` [Example 10.2, 7-(2,3-bis(4-chlorophenyl)-6-cyclopropyl-5H-pyrrolo[2,3-b]pyrazin-5-yl)heptanoic acid]: the response was half-maximal at 5.6 nM (EC50).

With `CCc1ccc(-c2nc3cc(C4CC4)n(CCCCCCC(=O)O)c3nc2-c2ccc(C)cc2)cc1` [Example 10.3, 7-(6-cyclopropyl-2-(4-ethylphenyl)-3-(p-tolyl)-5H-pyrrolo[2,3-b]pyrazin-5-yl)heptanoic acid], the EC50 amounted to 6.8 nM.

On to `Cc1cccc(-c2nc3cc(C4CC4)n(CCCCCCC(=O)O)c3nc2-c2cccc(C)c2)c1` [Example 10.4, 7-(6-cyclopropyl-2,3-di-m-tolyl-5H-pyrrolo[2,3-b]pyrazin-5-yl)heptanoic acid], for which the EC50 turned out to be 60.6 nM.

For `CCc1ccc(-c2nc3c(cc(C4CC4)n3CCCCCCC(=O)O)nc2-c2ccc(C)cc2)cc1` [Example 10.5, 7-(6-cyclopropyl-3-(4-ethylphenyl)-2-(p-tolyl)-5H-pyrrolo[2,3-b]pyrazin-5-yl)heptanoic acid], the EC50 came out at 4.4 nM.

`COc1ccc(-c2nc3c(cc(C4CC4)n3CCCCCCC(=O)O)nc2-c2ccc(C)cc2)cc1` [Example 10.6, 7-(6-cyclopropyl-3-(4-methoxyphenyl)-2-(p-tolyl)-5H-pyrrolo[2,3-b]pyrazin-5-yl)heptanoic acid] showed an EC50 of 6.1 nM.

Turning to `Cc1ccc(-c2nc3cc(C4CC4)n(CCCCCCC(=O)O)c3nc2-c2cccc(C)c2)cc1` [Example 10.7, 7-(6-cyclopropyl-3-(m-tolyl)-2-(p-tolyl)-5H-pyrrolo[2,3-b]pyrazin-5-yl)heptanoic acid], the EC50 amounted to 37.1 nM.

For the compound `Cc1ccc(-c2nc3c(cc(C4CC4)n3CCCCCCC(=O)O)nc2-c2cccc(C)c2)cc1` [Example 10.8, 7-(6-cyclopropyl-2-(m-tolyl)-3-(p-tolyl)-5H-pyrrolo[2,3-b]pyrazin-5-yl)heptanoic acid], a half-maximal response (EC50) required 2.5 nM.

Compound `Cc1ccc(-c2nc3cc(CCO)n(CCCCCCC(=O)O)c3nc2-c2ccc(C)cc2)cc1` [Example 11, 7-(6-(2-Hydroxyethyl)-2,3-di-p-tolyl-5H-pyrrolo[2,3-b]pyrazin-5-yl)heptanoic acid] registered an EC50 of 1.6 nM.

The compound `Cc1ccc(-c2nc3cc(C4CC4)n(CCCCC(=O)O)c3nc2-c2ccc(C)cc2)cc1` [Example 12, 5-(6-Cyclopropyl-2,3-di-p-tolyl-5H-pyrrolo[2,3-b]pyrazin-5-yl)pentanoic acid] came in with an EC50 of 660 nM.

Compound `Cc1ccc(-c2nc3cc(C4CC4)n(CCCCCC(=O)O)c3nc2-c2ccc(C)cc2)cc1` [Example 13, 6-(6-Cyclopropyl-2,3-di-p-tolyl-5H-pyrrolo[2,3-b]pyrazin-5-yl)hexanoic acid] came in with an EC50 of 2.4 nM.

Compound `COCc1cn(CCCCCCC(=O)O)c2nc(-c3ccc(C)cc3)c(-c3ccc(C)cc3)nc12` [Example 14, 7-(7-(Methoxymethyl)-2,3-di-p-tolyl-5H-pyrrolo[2,3-b]pyrazin-5-yl)heptanoic acid] yielded an EC50 of 4.2 nM.

Take `Cc1ccc(-c2nc3c(nc2-c2ccc(C)cc2)N(CCCCCCC(=O)O)C(=O)C3)cc1` [Example 15, 7-(6-oxo-2,3-dip-tolyl-6,7-dihydro-5H-pyrrolo[2,3-b]pyrazin-5-yl)heptanoic acid]: a half-maximal effect (EC50) was put at 3.6 nM.

`Cc1ccc(-c2nc3cc(C(F)(F)F)n(CCCCCCC(=O)O)c3nc2-c2ccc(C)cc2)cc1` [Example 16, 7-(2,3-Dip-tolyl-6-(trifluoromethyl)-5H-pyrrolo[2,3-b]pyrazin-5-yl)heptanoic acid] yielded a half-maximal effective concentration (EC50) of 3 nM.

`CCc1c(CC)n(CCCCCCC(=O)O)c2nc(-c3ccc(C)cc3)c(-c3ccc(C)cc3)nc12` [Example 17, 7-(6,7-Diethyl-2,3-di-p-tolyl-5H-pyrrolo[2,3-b]pyrazin-5-yl)heptanoic acid] showed a concentration for a half-maximal effect (EC50) of 0.5 nM.

These data come from US8937069B2, “Substituted pyrrolo[2,3-B]pyrazine compounds and their use” (Novartis AG, priority 2012, dated 2015).
